Experimental data as given in patent US7745465B2, “Method of enhancing cellular production of molecular chaperone, hydroxylamine derivatives useful for enhancing the chaperone production and the preparation thereof” (CytRx Corporation, priority 1995, dated 2010).

Tests used:
[1] = tested on: human skin grafted on severe combined immunodeficiency disease (SCID) mice; assay: UVB light induced skin injury in human skin grafted SCID mice; type: in vivo, mouse; details: 5.0 mg/kg i.p. for 7 days
Procedure: Human skin tissues were grafted onto immunodeficiency (SCID) mice. The experimental protocol involved a treatment of one group of the mice with N-[2-hydroxy-3-(1-piperidinyl)propoxy]-3-piridinecarboxymidoyl chloride maleate (5.0 mg/kg i.p.) and the other with the solvent NaCl solution (300 μl) for 7 days. On day 8, both groups of mice were exposed to UVB light (100 mJ/cm^2) 24 hours subsequent to the exposure, skin biopsies were taken for histological (sections stained with hematoxylin and eosin), and immunohistological examinations (indirect immunoflourescence technique with monoclonal antibody, mAB).
(i) Human skin transplanted SCID mice treated by N-[2-hydroxy-3-(1-piperidinyl)propoxy]-3-piridinecarboximidoyl chloride maleate (5.0 mg/kg i.p.) or vehicle were exposed to UVB light (100 mJ/cm^2). After 24 h skin biopsies were taken for histological examination and for hsp72 determination using immunohistological and Western blotting techniques.

[2] = tested on: SPRD male rats; assay: Cardiac ischemia (LAD occlusion 5 min, reperfusion 10 min): ventricular tachycardia, fibrillation, survival; type: in vivo, rat
Procedure: Experiments were carried out in SPRD male rats. The animals were anaesthetized with Nembutal in a dose of 60 mg/kg/i.p. After opening the chest and pericardium, the LAD coronary artery was occluded for 5 minutes and then the incidence and duration of ventricular tachycardia and fibrillation in the reperfusion period (10 minutes) were investigated. Tissue samples were collected from the left and right ventricles.

[3] = tested on: Grp94; assay: Western blot of Grp94 in heat shocked H9c2 cells; type: cell-based, rat
Procedure: Experiments set forth in this section were conducted to determine whether N-[2-hydroxy-3-(1-piperidinyl)propoxy]-3-pyridinecarboximidoyl chloride maleate acts to increase the expression of molecular chaperon by a cell. The accumulation of different heat shock proteins subsequent to a period of exposure to heat shock alone, and to heat shock in combination with N-[2-hydroxy-3-(1-piperidinyl)propoxy]-3-pyridinecarboximidoyl chloride maleate administration, was examined by adding 10^−5 M of N-[2-hydroxy-3-(1-piperidinyl)propoxy]-3-pyridinecarboximidoyl chloride maleate before, during, or immediately after hyperthermic treatment of heart myogenic cells (H9c2 cells).
The embryonic rat heart-derived cell line H9c2 was obtained from European Collection of Animal cell Cultures (ECACC) (88092904). The cells were maintained at 37° C. in Dulbecco's modified Eagle's medium (DMEM) supplemented with 10% fetal calf serum (GIBCO) in JOUAN C02 thermostat (5% CO2).
Heat shock was performed at 43° C. in CO2 thermostat for the given time intervals (20, 40, 60, 90 and 120 min.). Cells were then taken back to 37° C. for 6 hours and proteins were extracted for SDS-PAGE. […]
Protein concentration was determined from 5:1 samples by the Bradford assay (M. M. Braford, Anal. Biochem., 72: 248-254 (1976)) in three parallel. […]

[4] = 0.5-, 0.75-, 1.0 mg/kg i.v. 5 min. before the occlusion

O=C(O)/C=C\C(=O)O.OC(CON=C(Cl)c1cccnc1)CN1CCCCC1 (stereo not shown) [N-[2-hydroxy-3-(1-piperidinyl)-propoxy]3-pyridinecarboximidoyl chloride maleate]
clinical signs of injuries due to UV exposure ([1]; UVB 100 mJ/cm^2, listed as N-[2-hydroxy-3-(1-piperidinyl)propoxy]-3-piridinecarboximidoyl chloride maleate): prevented UVB light induced skin injury | clinical signs of injuries due to UV exposure ([1]; UVB 100 mJ/cm^2, listed as N-[2-hydroxy-3-(1-piperidinyl)propoxy]-3-piridinecarboxymidoyl chloride maleate): clinical signs of injuries due to UV exposure could not be observed | survival of reperfusion after the 5 min. occlusion ([2]; 100 mg/kg p.o., all control animals (n=6) died): survived the reperfusion | mean duration of ventricular tachycardia [2, 4]: reduced significantly | survival rate (preventing ventricular fibrillation) [2, 4]: improved the survival rate | effect on Grp94 level ([3]; addition during recovery from heat stress lasting for 40 to 60 min.): almost effective as the administration | increase of Grp94 compared to 43° C. treatment ([3]; preaddition of the drug combined with a 20 min. long heat shock): 4 times
